Marks after values point to notes of the source that are not given here.
Assays:
[1] = Slendering effect, body weight and rating scales in obese humans; assay type: in vivo, human; conditions: for Body weight (%): adult humans, change vs background (not treated) = 100; for decrease of body weight: obese women
Experimental: A study of the slendering effect of Phenotropil (100, 200 and 300 mg once a day for 30 days) in women (37-65 years) with alimentary constitutional obesity and non-obese groups (males and females 23-47 years) are presented in Table 26. The control groups received placebo tablets. The nutrition regimen and ration were not regulated; no recommendations on calories or regimen were given. The purpose of the study was to identify the effect of the drug without the influence of the diet. To assess the condition before and after treatment, in addition to the measurement of body weight, the dynamics of the general clinical condition was studied: asthenia scale MFI-20, Hospital Anxiety and Depression Scale, the quality of life scale SF-36. The questionnaires were completed twice: one day before treatment and the next day after the end of treatment.

[2] = test system: rats; test: Scopolamine-induced CRPA amnesia in rats 30-35 days of age; assay type: in vivo
Excerpt: Phenotropil has a pronounced mnemotropic and nootropic activity. The results of the study of the antiamnestic activity (classical technique in the equipment manufactured by Lafayette Instrument Co, USA) in the retrograde amnesia of the passive avoidance conditional reflex (CRPA) induced by maximal electroshock (MES) and scopolamine in male rats (180-250 g) are shown in Table 7. […] Taking into account the studies using the open field and cross maze tests, the nootropic action component of the modulatory drug not only may be more pronounced, but is broader in manifestation depending on the type of disorder or in unfamiliar situational conditions. The pronounced nootropic activity of Phenotropil (100, 200, 300 mg/kg) also manifests in rat pups of both sexes 30-35 days of age (Table 7.1) after scopolamine-induced CRPA amnesia.
In studying immature animals, it must be considered that to generate CRPA it is required, as was established, to apply higher educational incentives (0.6 mA, 8 pulses vs 5 pulses at 0.45 mA in adult rats) with re-training (after 48 hours). Development of amnesia also requires a higher dose of scopolamine (1.3 mg/kg) in rat pups. […] Phenotropil has not only a psychomodulatory (Ψ-modulatory) activity but also a Ψ-operandmodulatory activity given that the mnemotropic effect is associated with the expression of specific proteins and genes involved in memory, attention and learning.

[3] = test system: rats; test: Locomotor activity in Opto-varimex, HEF and LEF rats; assay type: in vivo
Excerpt: (RS)-2-(2-oxo-4-phenylpyrrolidin-1-yl)acetamide has a psychomodulatory activity with the commensurate effect on motor activity of rats.

[4] = test system: mice; test: Apomorphine verticalization (positive symptoms of schizophrenia); assay type: in vivo; conditions: for Intensity of verticalization in points: mice, apomorphine 2 mg/kg s.c.
Experimental: Studies have been conducted on white outbred male mice (18-24 g), in comparison with the olanzapine (Zyprexa) with intraperitoneal injection.
In the model of positive symptoms of schizophrenia associated with hyperactivation of the dopamine systems, which allows to identify the ability of substances to block the dopaminergic transmission in the mesolimbic system of the brain, Phenotropil (100, 200, and 300 mg/kg) reduced the apomorphine-induced (2 mg/kg subcutaneously) verticalization intensity scores (Table 4) by 45%, by 2.0 and 2.6 times, respectively.

[5] = test system: mice; test: Benzedrine-induced stimulation of orientation-locomotor activity; assay type: in vivo
Excerpt: In regard to influencing the effects of Benzedrine, Phenotropil also can provide, depending on the dose, the diametrically opposite activity when in combination with psychostimulants. This fact must be taken into account in combined use of various pharmacological agents.

[6] = normal conditions and high physical activity; cited from earlier work
[7] = mice, Benzedrine 3 mg/kg + Phenotropil 50.0 mg/kg
[8] = mice, Benzedrine 3 mg/kg + Phenotropil 100.0 mg/kg
[9] = mice, Benzedrine 3 mg/kg + Phenotropil 300.0 mg/kg
[10] = mice, doses of 50 and 100 mg/kg (so in the source)

NC(=O)CN1CC(c2ccccc2)CC1=O (racemic) [Compound 1, (RS)-2-(2-oxo-4-phenylpyrrolidine-1-yl)acetamide]
Body weight (%) ([1]; 100 mg/day): −12.0 * % | Body weight (%) ([1]; 200 mg/day): −15.0 * % | Body weight (%) ([1]; 300 mg/day): −17.8 * % | positive effect on cramps when urinating, patients ([1]; comorbidities): 5 of 5 | positive effect on lost ability to sense and discriminate odors, patients ([1]; comorbidities): 11 of 18 | positive effect on prostatitis, patients ([1]; comorbidities): 3 of 3 | positive trend in chronic sinusitis, patients ([1]; comorbidities): 8 of 8 | decrease of body weight ([1]; 100 mg once a day 30 days): 12% | decrease of body weight ([1]; 200 mg once a day 30 days): 15% | decrease of body weight ([1]; 300 mg once a day 30 days): 18% | decrease of anxiety and depression, on average ([1]; rating scales after 30 days): more than 60% | decrease of indicators of fatigue ([1]; rating scales after 30 days): 92% | LP1 (training) ([2]; 100 mg/kg): 7.2 ± 2.8 | LP2 (at 24 hours) ([2]; 100 mg/kg): 25.2 ± 3.8 | ΔLP ([2]; 100 mg/kg): 18.0 ± 2.9 | LP1 (training) ([2]; 200 mg/kg): 11.0 ± 3.0 | LP2 (at 24 hours) ([2]; 200 mg/kg): 45.2 ± 7.3 | ΔLP ([2]; 200 mg/kg): 34.2 ± 9.0 | LP1 (training) ([2]; 300 mg/kg): 8.0 ± 3.0 | LP2 (at 24 hours) ([2]; 300 mg/kg): 82.4 ± 4.3 | ΔLP ([2]; 300 mg/kg): 74.4 ± 3.7 | locomotor activity vs control ([3]; HEF rats, 5 mg/kg i.g., 0-5 min): −0.06% | locomotor activity vs control ([3]; HEF rats, 5 mg/kg i.g., 5-10 min): +7.36% * | locomotor activity vs control ([3]; HEF rats, 5 mg/kg i.g., 10-15 min): −7.36% | locomotor activity vs control ([3]; HEF rats, 5 mg/kg i.g., 15-20 min): −96.53% * | locomotor activity vs control ([3]; HEF rats, 5 mg/kg i.g., 20-25 min): −103.15% * | locomotor activity vs control ([3]; HEF rats, 5 mg/kg i.g., 25-30 min): +207.1% * | locomotor activity vs control ([3]; HEF rats, 10 mg/kg i.g., 0-5 min): −4.2% | locomotor activity vs control ([3]; HEF rats, 10 mg/kg i.g., 5-10 min): −8.4% | locomotor activity vs control ([3]; HEF rats, 10 mg/kg i.g., 10-15 min): −3.73% | locomotor activity vs control ([3]; HEF rats, 10 mg/kg i.g., 15-20 min): +7.44% | locomotor activity vs control ([3]; HEF rats, 10 mg/kg i.g., 20-25 min): −4.72% | locomotor activity vs control ([3]; HEF rats, 10 mg/kg i.g., 25-30 min): 0% | locomotor activity vs control ([3]; HEF rats, 10 mg/kg i.g., accumulated, listed as Phenotropil, 10 mg/kg): −4.23% | locomotor activity vs control ([3]; LEF rats, 5 mg/kg i.g., 0-5 min): +15.0% * | locomotor activity vs control ([3]; LEF rats, 5 mg/kg i.g., 5-10 min): +6.18% | locomotor activity vs control ([3]; LEF rats, 5 mg/kg i.g., 10-15 min): +9.74% | locomotor activity vs control ([3]; LEF rats, 5 mg/kg i.g., 15-20 min): +29.1% * | locomotor activity vs control ([3]; LEF rats, 5 mg/kg i.g., 20-25 min): +2.1% | locomotor activity vs control ([3]; LEF rats, 5 mg/kg i.g., 25-30 min): +10.0% * | locomotor activity vs control ([3]; LEF rats, 10 mg/kg i.g., 0-5 min): +4.31% | locomotor activity vs control ([3]; LEF rats, 10 mg/kg i.g., 5-10 min): +11.31% * | locomotor activity vs control ([3]; LEF rats, 10 mg/kg i.g., 10-15 min): +27.85% | locomotor activity vs control ([3]; LEF rats, 10 mg/kg i.g., 15-20 min): +7.23 * % | locomotor activity vs control ([3]; LEF rats, 10 mg/kg i.g., 20-25 min): +14.39% * | locomotor activity vs control ([3]; LEF rats, 10 mg/kg i.g., 25-30 min): +3.75% | locomotor activity vs control ([3]; population (normal) rats, 5 mg/kg i.g., 0-5 min): +18.06% * | locomotor activity vs control ([3]; population (normal) rats, 5 mg/kg i.g., 5-10 min): −5.95% | locomotor activity vs control ([3]; population (normal) rats, 5 mg/kg i.g., 10-15 min): −13.03% * | locomotor activity vs control ([3]; population (normal) rats, 5 mg/kg i.g., 15-20 min): −22.55% * | locomotor activity vs control ([3]; population (normal) rats, 5 mg/kg i.g., 20-25 min): +50.76% * | locomotor activity vs control ([3]; population (normal) rats, 5 mg/kg i.g., 25-30 min): +50.97% * | locomotor activity vs control ([3]; population (normal) rats, 5 mg/kg i.g., accumulated): +4.28% * | locomotor activity vs control ([3]; population (normal) rats, 10 mg/kg i.g., 0-5 min): +38.8% * | locomotor activity vs control ([3]; population (normal) rats, 10 mg/kg i.g., 5-10 min): −5.78% | locomotor activity vs control ([3]; population (normal) rats, 10 mg/kg i.g., 10-15 min): +5.56% | locomotor activity vs control ([3]; population (normal) rats, 10 mg/kg i.g., 15-20 min): +42.91 * % | locomotor activity vs control ([3]; population (normal) rats, 10 mg/kg i.g., 20-25 min): +95.6% * | locomotor activity vs control ([3]; population (normal) rats, 10 mg/kg i.g., 25-30 min): −91.47% * | locomotor activity vs control ([3]; population (normal) rats, 10 mg/kg i.g., accumulated): +18.0% * | reduction of verticalization intensity ([4]; 1 mg/kg): 26% | reduction of verticalization intensity ([4]; 10 mg/kg): 66.5% | reduction of verticalization intensity ([4]; 100 mg/kg): 45% | reduction of verticalization intensity ([4]; 200 mg/kg): 2.0 times | reduction of verticalization intensity ([4]; 300 mg/kg): 2.6 times | Intensity of verticalization in points ([4]; 100 mg/kg i.p.): 27 ± 8.7 points | Intensity of verticalization in points ([4]; 200 mg/kg i.p.): 25 ± 5.1 points | Intensity of verticalization in points ([4]; 300 mg/kg i.p.): 19 ± 5.1 points | Number of pulses for 3 min. [5, 7]: 126.0 ± 12.4 | Number of stand-ups for 3 min. [5, 7]: 15.9 ± 2.0 | Number of pulses for 3 min. [5, 8]: 129.2 ± 14.2 | Number of stand-ups for 3 min. [5, 8]: 24.2 ± 4.8 | Number of pulses for 3 min. [5, 9]: 48.1 ± 9.4 | Number of stand-ups for 3 min. [5, 9]: 12.1 ± 4.6 | increase of orientation and exploratory behavior, horizontal component, vs control [5, 10]: 240.0% | increase of orientation and exploratory behavior, vertical component, vs control [5, 10]: 89.0% | reduction of psychostimulant effect of Benzedrine, horizontal component ([5]; single 300 mg/kg): ~42.9% | reduction of psychostimulant effect of Benzedrine, vertical component ([5]; single 300 mg/kg): 14.8% | time of excretion from the body [6]: 72 h

Reference: patent publication US20140315972A1, “RS)-2-(2-oxo-4-phenylpyrrolidin-1-yl)acetamide compound having modulatory activity with a commensurate effect, pharmaceutical substance (variants) and its application, composition (variants) thereof” (priority 2011, published 2014)
